Assay results published in patent publication US9902728B2, “Pyrrolo and pyrazolopyrimidines as ubiquitin-specific protease 7 inhibitors” (Forma Therapeutics, Inc., priority 2014, dated 2018).

target: T1, USP7 (Homo sapiens, UniProt Q93009); experiment: USP7 Assay A (Ubitquin-Rhodamine 110 Assay); assay type: biochemical; conditions: USP7 activity in USP7 assay A and B (table does not say which assay per compound); read-out: USP7_IC50
T1 construct: USP7, construct USP7 (208-1102) 6*His, Viva Biotech; 6xHis (C); purchased Viva Biotech
Method in brief: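 Ub-Rh110 cleavage in 20 mM Tris-HCl pH 8.0 with 1 mM GSH, 0.03% BGG, 0.01% Triton X-100; compound preincubated with enzyme 30 min before substrate.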

T1 sequence (Q93009 208-1102): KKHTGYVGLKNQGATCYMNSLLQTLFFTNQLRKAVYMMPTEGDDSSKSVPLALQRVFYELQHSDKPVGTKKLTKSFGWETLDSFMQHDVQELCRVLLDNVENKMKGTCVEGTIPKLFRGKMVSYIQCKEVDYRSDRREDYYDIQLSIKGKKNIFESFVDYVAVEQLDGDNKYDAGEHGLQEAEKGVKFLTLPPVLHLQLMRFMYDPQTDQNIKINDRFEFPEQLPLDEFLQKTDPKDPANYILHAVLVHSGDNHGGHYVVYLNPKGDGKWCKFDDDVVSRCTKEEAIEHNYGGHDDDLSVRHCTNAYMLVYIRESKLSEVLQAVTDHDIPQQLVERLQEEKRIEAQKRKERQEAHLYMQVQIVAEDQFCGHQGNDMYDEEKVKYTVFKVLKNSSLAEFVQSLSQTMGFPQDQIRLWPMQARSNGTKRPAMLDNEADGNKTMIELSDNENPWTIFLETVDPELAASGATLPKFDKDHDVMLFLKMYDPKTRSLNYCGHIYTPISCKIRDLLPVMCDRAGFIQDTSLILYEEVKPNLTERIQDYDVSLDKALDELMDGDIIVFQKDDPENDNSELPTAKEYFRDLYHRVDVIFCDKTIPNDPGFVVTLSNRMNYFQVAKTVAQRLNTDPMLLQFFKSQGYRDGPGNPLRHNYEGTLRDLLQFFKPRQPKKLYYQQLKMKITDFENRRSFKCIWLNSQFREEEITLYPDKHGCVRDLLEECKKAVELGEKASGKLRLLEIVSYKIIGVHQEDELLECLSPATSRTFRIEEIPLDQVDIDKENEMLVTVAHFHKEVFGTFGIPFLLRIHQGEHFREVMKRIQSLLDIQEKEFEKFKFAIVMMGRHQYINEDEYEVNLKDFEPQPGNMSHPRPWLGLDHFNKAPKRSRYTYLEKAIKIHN

Compared with C=CC(=O)N1CC[C@]1(C)C(=O)N1CCC(O)(Cn2cnc3c(cnn3-c3ccc(-c4ccccc4)cc3)c2=O)CC1 [Compound I-660], CN1CC[C@@H](Oc2ccc(-c3ccc(-n4ncc5c(=O)n(CC6(O)CCN(C(=O)C7CC7)CC6)cnc54)cc3)cc2)C1 [Compound I-679] is lower in IC50: 0.2 to 1 µM for the first, less than 0.2 µM for the second. The second is the more potent here.

First: Cc1ccc(C(=O)N2CCC(O)(Cn3cnc4c(cnn4-c4ccc(-n5cc(OCCO)cn5)cc4)c3=O)CC2)cc1 [Compound I-672]
Second: Cc1ncn(-c2ccc(-n3ncc4c(=O)n(CC5(O)CCN(C(=O)c6ccc(F)cc6)CC5)cnc43)cc2)n1 [Compound I-673]
The IC50 of the first is lower: 0.2 to 1 µM for the first, 1 to 10 µM for the second.

CN1CC[C@H](Oc2ccc(-c3ccc(-n4ncc5c(=O)n(CC6(O)CCN(C(=O)C7CC7)CC6)cnc54)cc3)cc2)C1 [Compound I-680] and O=C(C1CC1)N1CCC(O)(Cn2cnc3c(cnn3-c3ccc(-c4ccc(N5CC[C@H](O)C5)nc4)cc3)c2=O)CC1 [Compound I-686] fall in the same range of IC50: 0.2 to 1 µM for the first, 0.2 to 1 µM for the second.

CN[C@H]1CCN(c2ccc(-c3ccc(-n4ncc5c(=O)n(CC6(O)CCN(C(=O)C7CC7)CC6)cnc54)cc3)cn2)C1 [Compound I-684] and CNC1CCN(c2ccc(-c3ccc(-n4ncc5c(=O)n(CC6(O)CCN(C(=O)C7CC7)CC6)cnc54)cc3)cn2)C1 (stereo not shown) [Compound I-685] cannot be ordered by IC50: less than 0.2 µM for the first, less than 0.2 µM for the second.

Work on O=C(C1CC1)N1CCC(O)(Cn2cnc3c(cnn3-c3ccc(-c4ccc(N5CC[C@@H](O)C5)nc4)cc3)c2=O)CC1 [Compound I-687] yielded an IC50 of 0.2 to 1 µM.

same assay, conditions: USP7 assay A and B (table does not say which assay per compound); read-out: USP7_IC50

Compared with CC(CC(=O)N1CCC(O)(Cn2cnc3c(cnn3-c3ccc(-c4ccccc4)cc3)c2=O)CC1)n1cccn1 (stereo not shown) [Compound I-648], C[C@@H](CC(=O)N1CCC(O)(Cn2cnc3c(cnn3-c3ccc(-c4ccccc4)cc3)c2=O)CC1)n1cccn1 [Compound I-649] is lower in IC50: 1 to 10 µM for the first, 0.2 to 1 µM for the second. The second is the more potent here.

First: C[C@H](CC(=O)N1CCC(O)(Cn2cnc3c(cnn3-c3ccc(-c4ccccc4)cc3)c2=O)CC1)n1cccn1 [Compound I-650]
Second: CC(CC(=O)N1CCC(O)(Cn2cnc3c(cnn3-c3ccc(-c4ccc(F)cc4)cc3)c2=O)CC1)n1cccn1 (stereo not shown) [Compound I-652]
The IC50 of the first is higher: 1 to 10 µM for the first, 0.2 to 1 µM for the second. The second is the more potent here.

Compared with C[C@H](CC(=O)N1CCC(O)(Cn2cnc3c(cnn3-c3ccc(-c4ccc(F)cc4)cc3)c2=O)CC1)n1cccn1 [Compound I-653], C[C@@H](CC(=O)N1CCC(O)(Cn2cnc3c(cnn3-c3ccc(-c4ccc(F)cc4)cc3)c2=O)CC1)n1cccn1 [Compound I-654] is higher in IC50: 0.2 to 1 µM for the first, greater than 10 µM for the second. The first is the more potent here.

First: CNC(=O)N1CCC(O)(Cn2cnc3c(cnn3-c3ccc(-c4ccc(F)cc4)cc3)c2=O)CC1 [Compound I-655]
Second: O=C(NC1CNCC1F)N1CCC(O)(Cn2cnc3c(cnn3-c3ccc(-c4ccccc4)cc3)c2=O)CC1 (stereo not shown) [Compound I-662]
The IC50 of the first is lower: 1 to 10 µM for the first, greater than 10 µM for the second.

First: C=CC(=O)N1CCC1C(=O)N1CCC(O)(Cn2cnc3c(cnn3-c3ccc(-c4ccccc4)cc3)c2=O)CC1 (stereo not shown) [Compound I-657]
Second: C#CC(=O)NC1CC(C(=O)N2CCC(O)(Cn3cnc4c(cnn4-c4ccc(-c5ccccc5)cc4)c3=O)CC2)C1 (stereo not shown) [Compound I-658]
The IC50 of the first is lower: 0.2 to 1 µM for the first, 1 to 10 µM for the second.

First: O=C(N[C@@H]1CNCC1F)N1CCC(O)(Cn2cnc3c(cnn3-c3ccc(-c4ccccc4)cc3)c2=O)CC1 (stereo partly shown) [Compound I-663]
Second: O=C(N[C@H]1CNCC1F)N1CCC(O)(Cn2cnc3c(cnn3-c3ccc(-c4ccccc4)cc3)c2=O)CC1 (stereo partly shown) [Compound I-664]
The IC50 of the first is higher: greater than 10 µM for the first, 1 to 10 µM for the second. The second is the more potent here.

First: O=C(c1ccccc1)N1CCC(O)(Cn2cnc3c(cnn3-c3ccc(-c4ccccc4)c(CO)c3)c2=O)CC1 [Compound I-665]
Second: O=C(C1CC1)N1CCC(O)(Cn2cnc3c(cnn3-c3ccc(-c4ccc(OC5CCNC5)cc4)cc3)c2=O)CC1 (stereo not shown) [Compound I-675]
The IC50 of the first is higher: 1 to 10 µM for the first, 0.2 to 1 µM for the second.

CN1CCC(Oc2ccc(-c3ccc(-n4ncc5c(=O)n(CC6(O)CCN(C(=O)C7CC7)CC6)cnc54)cc3)cc2)C1 (stereo not shown) [Compound I-678] and CNC1CCN(c2ccc(-c3ccc(-n4ncc5c(=O)n(CC6(O)CCN(C(=O)C7CC7)CC6)cnc54)cc3)cc2)C1 (stereo not shown) [Compound I-688] fall in the same range of IC50: 0.2 to 1 µM for the first, 0.2 to 1 µM for the second.
